The record followed here is patent US8778966B2, “Quinolinone derivatives as PARP and tank inhibitors” (Janssen Pharmaceutica, NV, priority 2007, dated 2014).

One assay deals with T1, Human PARP-1 enzyme (Homo sapiens, UniProt P09874).
T1 construct: purchased Trevigen
The assay is described as follows: In vitro Scintillation Proximity Assay (SPA) for PARP-1 inhibitory activity. Type of assay: biochemical. As to conditions: read-out: in vitro SPA assay PARP-1 pIC50 (converted). The procedure, abridged: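 SPA assay: nicked-DNA-activated PARP-1 (0.1–0.2 μg/ml) ADP-ribosylates biotinylated histones (2 μg/ml) using [3H]-NAD+, 20 min at RT in Tris pH 8/DTT/MgCl2, stopped with 2 mM NAD+. Blank-subtracted cpm expressed as % control; IC50 by linear interpolation, reported as pIC50 (10−5 to 3×10−9 M tested).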
(In general: Scintillation proximity formats need no separation of bound from free tracer.)

Another assay relates to HCT116 cells. In words: Mitotic arrest assay on HCT116 cells (phospho-histone H3 Ser10). Type of assay: cell-based, human. As to conditions: lowest active dose; for minimal effective concentration: Homo sapiens, HCT-116, HCT116 cells, read-out: Mitotic arrest HCT116 LAD (converted). The procedure, abridged: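 Read-out is imaging of phospho-histone H3 Ser10 (Alexa Fluor 488) with Hoechst nuclear counting, after 6 h compound exposure at 37 °C, DMSO ≤0.1%. LAD is the lowest dose at which the blank-corrected value over SD exceeds 5; triplicates, low-count wells excluded.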

Structures are written as SMILES. Bounds are passed on as bounds.

T1 sequence (P09874 whole entry): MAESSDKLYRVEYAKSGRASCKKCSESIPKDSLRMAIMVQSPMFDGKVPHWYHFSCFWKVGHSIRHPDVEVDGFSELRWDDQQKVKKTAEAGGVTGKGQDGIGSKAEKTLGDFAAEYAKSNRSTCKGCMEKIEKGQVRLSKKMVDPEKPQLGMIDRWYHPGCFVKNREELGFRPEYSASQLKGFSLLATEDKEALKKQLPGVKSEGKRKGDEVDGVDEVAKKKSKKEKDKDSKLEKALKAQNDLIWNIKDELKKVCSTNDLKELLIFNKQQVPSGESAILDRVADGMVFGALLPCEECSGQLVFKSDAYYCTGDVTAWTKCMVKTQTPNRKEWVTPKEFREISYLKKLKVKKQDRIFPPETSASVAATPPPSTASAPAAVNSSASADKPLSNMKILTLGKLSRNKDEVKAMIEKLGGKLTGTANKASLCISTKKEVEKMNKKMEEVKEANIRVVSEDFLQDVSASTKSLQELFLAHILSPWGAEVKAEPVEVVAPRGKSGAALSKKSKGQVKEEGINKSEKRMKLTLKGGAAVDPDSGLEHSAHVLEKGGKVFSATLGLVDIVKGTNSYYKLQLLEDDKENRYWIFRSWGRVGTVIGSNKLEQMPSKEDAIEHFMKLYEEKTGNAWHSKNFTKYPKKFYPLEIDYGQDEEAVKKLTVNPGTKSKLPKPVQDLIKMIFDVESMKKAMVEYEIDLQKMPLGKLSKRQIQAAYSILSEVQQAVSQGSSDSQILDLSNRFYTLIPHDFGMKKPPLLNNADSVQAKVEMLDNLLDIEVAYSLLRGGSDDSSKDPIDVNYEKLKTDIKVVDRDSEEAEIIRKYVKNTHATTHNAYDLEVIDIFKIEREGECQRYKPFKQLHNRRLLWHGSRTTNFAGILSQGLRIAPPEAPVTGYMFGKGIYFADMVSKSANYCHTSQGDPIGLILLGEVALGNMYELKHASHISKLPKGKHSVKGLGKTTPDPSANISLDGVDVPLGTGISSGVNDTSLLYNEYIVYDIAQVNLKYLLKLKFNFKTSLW

Turning to `CCc1cc2ccc([C@](C)(C#N)Cc3ccccc3)cc2[nH]c1=O` (single isomer, unassigned) [Compound 45], at Human PARP-1 enzyme, the IC50 was 0.316 µM. Besides, the minimal effective concentration in the assay with HCT116 cells is over 10 µM.

`CCc1cc2ccc([C@@](C)(C#N)Cc3ccccc3)cc2[nH]c1=O` (single isomer, unassigned) [Compound 46]: the IC50 at Human PARP-1 enzyme is 0.316 µM. For the same compound, the minimal effective concentration with HCT116 cells was 0.316 µM.

Consider `CCc1cc2ccc(C(C)(C#N)CC3COc4ccccc4O3)cc2[nH]c1=O` (single isomer, unassigned) [Compound 47], for which the IC50 on Human PARP-1 enzyme was 0.398 µM. This compound had a Mitotic arrest HCT116 LAD in the assay on HCT116 cells (HCT116 cells, the values are: pLAD (−log M lowest active dose)) of 5.5.

For `CCc1cc2ccc([C@](C)(C#N)Cc3nc(OC)cc(OC)n3)cc2[nH]c1=O` (single isomer, unassigned) [Compound 52], the IC50 at Human PARP-1 enzyme is 0.2 µM. Moreover, the minimal effective concentration with HCT116 cells is 3 µM.

Regarding `CCc1cc2ccc([C@@](C)(C#N)Cc3nc(OC)cc(OC)n3)cc2[nH]c1=O` (single isomer, unassigned) [Compound 53], the IC50 on Human PARP-1 enzyme is 0.0501 µM. Also, the minimal effective concentration in the assay with HCT116 cells is 0.02 µM.

In the case of `CCc1cc2ccc(C(C)(C#N)Cc3cccc(C#C[Si](C)(C)C)c3)cc2[nH]c1=O` (centres unmarked) [Compound 1], the IC50 at Human PARP-1 enzyme was 0.398 µM. In addition, the minimal effective concentration in the assay with HCT116 cells was 1 µM.

On to `CCc1cc2ccc(C(C)(C#N)Cc3cccc(CN(C)C)c3)cc2[nH]c1=O` (centres unmarked) [Compound 7], for which, on Human PARP-1 enzyme, the IC50 was 1 µM. For the same compound, the minimal effective concentration in the assay on HCT116 cells was 3.16 µM.

`CCc1cc2ccc(C(C)(C#N)Cc3cccc(COC)c3)cc2[nH]c1=O` (centres unmarked) [Compound 8]: the IC50 at Human PARP-1 enzyme was 0.501 µM. For the same compound, in the assay on HCT116 cells, the minimal effective concentration is 0.1 µM.

With `CCc1cc2ccc(C(C)(C#N)Cc3cccc(CO)c3)cc2[nH]c1=O` (centres unmarked) [Compound 9], on Human PARP-1 enzyme, the IC50 was 0.2 µM. The minimal effective concentration in the assay with HCT116 cells was 0.316 µM.

As for `CCc1cc2ccc(C(C#N)(Cc3ccccc3)CC3CC3)cc2[nH]c1=O` (centres unmarked) [Compound 28], in the assay with HCT116 cells, the minimal effective concentration is 3.16 µM.

As for `CC(C#N)(Cc1ccccc1)c1ccc2cc(CO)c(=O)[nH]c2c1` (centres unmarked) [Compound 40], the IC50 on Human PARP-1 enzyme was 2.51 µM. In addition, the minimal effective concentration in the assay on HCT116 cells was 3.16 µM.

As to `CCc1cc2ccc(C(C)(C#N)Cc3c(F)ccc(C)c3F)cc2[nH]c1=O` (centres unmarked) [Compound 41], at Human PARP-1 enzyme, the IC50 is 1 µM. In addition, the minimal effective concentration in the assay on HCT116 cells is 0.316 µM.

For `CCc1cc2ccc(C(C)(C#N)Cc3nnsc3Cl)cc2[nH]c1=O` (centres unmarked) [Compound 42], the IC50 at Human PARP-1 enzyme was 0.2 µM. Moreover, in the assay on HCT116 cells, the minimal effective concentration is 0.1 µM.

`CCc1cc2ccc(C(C)(C#N)Cc3nc(OC)cc(OC)n3)cc2[nH]c1=O` (centres unmarked) [Compound 43]: the IC50 on Human PARP-1 enzyme was 0.2 µM. Besides, the minimal effective concentration in the assay on HCT116 cells is 0.0316 µM.

For `CCc1cc2ccc(C(C)(C#N)Cc3ccccc3)cc2[nH]c1=O` (centres unmarked) [Compound 44], the IC50 on Human PARP-1 enzyme was 0.316 µM. Besides, the minimal effective concentration in the assay on HCT116 cells is 0.316 µM.

Take `CCc1cc2ccc(C(C)(C#N)Cc3cccc(Br)c3)cc2[nH]c1=O` (centres unmarked) [Compound 49]: at Human PARP-1 enzyme, the IC50 is 0.316 µM. Besides, in the assay on HCT116 cells, the minimal effective concentration was 0.1 µM.

`CCOP(=O)(OCC)c1cccc(CC(C)(C#N)c2ccc3cc(CC)c(=O)[nH]c3c2)c1` (centres unmarked) [Compound 50]: the IC50 at Human PARP-1 enzyme was 2.51 µM. For the same compound, the minimal effective concentration with HCT116 cells was 0.316 µM.

In the case of `CCc1cc2ccc(C(C)(C#N)Cc3cccc(C#N)c3)cc2[nH]c1=O` (centres unmarked) [Compound 51], the IC50 at Human PARP-1 enzyme is 0.126 µM. In addition, in the assay with HCT116 cells, the minimal effective concentration is 0.1 µM.

For the compound `CCc1cc2ccc(C(C)(C#N)CCOc3ccc([N+](=O)[O-])cc3)cc2[nH]c1=O` (centres unmarked) [Compound 54], the IC50 on Human PARP-1 enzyme is 0.158 µM. Besides, the minimal effective concentration in the assay with HCT116 cells is 0.1 µM.

In the case of `CCc1cc2ccc(C(C)(C#N)Cc3cccc(CN4CCN(C)CC4)c3)cc2[nH]c1=O` (centres unmarked) [Compound 57], at Human PARP-1 enzyme, the IC50 was 3.98 µM. Further, the minimal effective concentration in the assay with HCT116 cells is over 10 µM.

Regarding `CCc1cc2ccc(C(C)(C#N)Cc3cccc(CN4CCOCC4)c3)cc2[nH]c1=O` (centres unmarked) [Compound 58], the IC50 on Human PARP-1 enzyme is 0.501 µM. Moreover, the minimal effective concentration in the assay with HCT116 cells is 3.16 µM.

Regarding `CCc1cc2ccc(C(C)(C#N)Cc3cccc(CNC)c3)cc2[nH]c1=O` (centres unmarked) [Compound 59], the IC50 at Human PARP-1 enzyme was 0.631 µM. Moreover, the minimal effective concentration with HCT116 cells is 10 µM.

As to `CCc1cc2ccc(C(C)(C#N)Cc3cccc(CNCCOC)c3)cc2[nH]c1=O` (centres unmarked) [Compound 60], the IC50 on Human PARP-1 enzyme was 0.794 µM. Moreover, the minimal effective concentration in the assay on HCT116 cells was 1 µM.

As to `CCc1cc2ccc(C(C)(C#N)Cc3cccc(CNCCN4CCOCC4)c3)cc2[nH]c1=O` (centres unmarked) [Compound 61], the IC50 on Human PARP-1 enzyme was 1 µM. In the assay with HCT116 cells, the minimal effective concentration is 10 µM.

As for `CCc1cc2ccc(C(C)(C#N)Cc3cccc(C(=O)NCCOC)c3)cc2[nH]c1=O` (centres unmarked) [Compound 62], the IC50 on Human PARP-1 enzyme is 0.501 µM. For the same compound, the minimal effective concentration with HCT116 cells is 1 µM.

As for `CCc1cc2ccc(C(C)(C#N)Cc3cccc(C(=O)N(C)C)c3)cc2[nH]c1=O` (centres unmarked) [Compound 63], the IC50 at Human PARP-1 enzyme is 1 µM. Moreover, the minimal effective concentration in the assay on HCT116 cells was 0.316 µM.

Turning to `CCc1cc2ccc(C(C)(C#N)Cc3cccc(N4CCNCC4)c3)cc2[nH]c1=O` (centres unmarked) [Compound 64], the IC50 at Human PARP-1 enzyme was 0.794 µM. For the same compound, the minimal effective concentration in the assay on HCT116 cells was 3.16 µM.

For the compound `CCc1cc2ccc(C(C)(C#N)Cc3cccc(N4CCCCC4)c3)cc2[nH]c1=O` (centres unmarked) [Compound 65], the IC50 on Human PARP-1 enzyme was 1.26 µM. Also, in the assay with HCT116 cells, the minimal effective concentration is 1 µM.

As to `CCc1cc2ccc(C(C)(C#N)Cc3cccc(N4CCN(C)CC4)c3)cc2[nH]c1=O` (centres unmarked) [Compound 66], the IC50 at Human PARP-1 enzyme is 1.26 µM. For the same compound, in the assay with HCT116 cells, the minimal effective concentration was 3.16 µM.

Take `CCc1cc2ccc(C(C)(C#N)Cc3cccc(OCC4CC4)c3)cc2[nH]c1=O` (centres unmarked) [Compound 67]: at Human PARP-1 enzyme, the IC50 is 1 µM. Also, the minimal effective concentration in the assay with HCT116 cells was 0.316 µM.

With `CCc1cc2ccc(C(C)(C#N)Cc3cccc(OCCCN4CCOCC4)c3)cc2[nH]c1=O` (centres unmarked) [Compound 68], the IC50 at Human PARP-1 enzyme is 1 µM. The minimal effective concentration with HCT116 cells is 10 µM.

In the case of `CCc1cc2ccc(C(C)(C#N)Cc3cccc(OCCCN4CCN(C)CC4)c3)cc2[nH]c1=O` (centres unmarked) [Compound 69], the IC50 on Human PARP-1 enzyme was 0.794 µM. Also, in the assay on HCT116 cells, the minimal effective concentration was 10 µM.

In the case of `Cc1cc2ccc(C(C)(C#N)Cc3noc(-c4cccc(C(F)(F)F)c4)n3)cc2[nH]c1=O` (centres unmarked) [Compound 70], the IC50 at Human PARP-1 enzyme is 3.98 µM. Also, in the assay with HCT116 cells, the minimal effective concentration was 1 µM.

Turning to `Cc1cc2ccc(C(C)(C#N)Cc3cc4ccccc4s3)cc2[nH]c1=O` (centres unmarked) [Compound 71], the IC50 at Human PARP-1 enzyme was 3.16 µM. For the same compound, in the assay with HCT116 cells, the minimal effective concentration was 0.316 µM.

Take `Cc1cc2ccc(C(C)(C#N)Cc3ccc(Cl)s3)cc2[nH]c1=O` (centres unmarked) [Compound 72]: the IC50 on Human PARP-1 enzyme was 1.26 µM. Further, the minimal effective concentration in the assay on HCT116 cells was 0.1 µM.

As to `Cc1cc2ccc(C(C)(C#N)Cc3ccc(C(F)(F)F)o3)cc2[nH]c1=O` (centres unmarked) [Compound 73], the IC50 at Human PARP-1 enzyme was 2 µM. Also, the minimal effective concentration in the assay with HCT116 cells is 0.316 µM.

Regarding `Cc1cc2ccc(C(C)(C#N)Cc3cccc4cccnc34)cc2[nH]c1=O` (centres unmarked) [Compound 74], the IC50 at Human PARP-1 enzyme is 1 µM. For the same compound, the minimal effective concentration in the assay with HCT116 cells is 0.316 µM.

Take `Cc1cc2ccc(C(C)(C#N)Cc3nc4ccccc4s3)cc2[nH]c1=O` (centres unmarked) [Compound 75]: the IC50 at Human PARP-1 enzyme is 1.26 µM. Besides, in the assay with HCT116 cells, the minimal effective concentration is 0.1 µM.

For `Cc1cc2ccc(C(C)(C#N)Cc3ccccc3)cc2[nH]c1=O` (centres unmarked) [Compound 76], on Human PARP-1 enzyme, the IC50 is 1.58 µM. Also, the minimal effective concentration with HCT116 cells is 0.316 µM.
